Results: patent EP0238178B1, “Novel derivatives of erythromycylamine” (ELI LILLY AND COMPANY, priority 1986, dated 1987)
≈ marks a conversion by molar mass, not a printed value. Where two headings read alike, the source gives them in different places.

Columns and labels:
[1] = tested on: Staphylococcus aureus X1.1; assay: MIC, standard agar-dilution assay; type: cell-based
[2] = tested on: Staphylococcus aureus V41; assay: MIC, standard agar-dilution assay; type: cell-based
Excerpt: (§1) In addition to excellent in vitro activity against erythromycin-sensitive bacteria, several members of this new series have shown in vitro activity against erythromycin-resistant strains. These include strains which are inducibly-resistant to erythromycin (S.. aureus V41 and X400 and S. epidermidis EPI1) and even strains which are constitutively-resistant (S. epidermidis 270).

[3] = tested on: Staphylococcus aureus X400; assay: MIC, standard agar-dilution assay; type: cell-based
Excerpt: as §1

[4] = tested on: Staphylococcus aureus S13E; assay: MIC, standard agar-dilution assay; type: cell-based
[5] = tested on: Staphylococcus epidermidis 222; assay: MIC, standard agar-dilution assay; type: cell-based
[6] = tested on: Streptococcus pyogenes C203; assay: MIC, standard agar-dilution assay; type: cell-based
[7] = tested on: Streptococcus pneumoniae Park I; assay: MIC, standard agar-dilution assay; type: cell-based
[8] = tested on: Streptococcus sp. group D X66; assay: MIC, standard agar-dilution assay; type: cell-based
[9] = tested on: Streptococcus sp. group D 2041; assay: MIC, standard agar-dilution assay; type: cell-based
[10] = tested on: Haemophilus influenzae C.L.; assay: MIC, standard agar-dilution assay; type: cell-based; settings: Ampicillin-sensitive strain
[11] = tested on: Haemophilus influenzae 76; assay: MIC, standard agar-dilution assay; type: cell-based; settings: Haemophilus influenzae 76, Ampicillin-resistant strain
Escherichia coli EC14 = assay: MIC, standard agar-dilution assay; type: cell-based
[12] = tested on: Klebsiella pneumoniae X68; assay: MIC, standard agar-dilution assay; type: cell-based
Staphylococcus aureus = assay: Experimental bacterial infection in mice, ED50; type: in vivo; settings: Staphylococcus aureus, two doses, dose protecting 50% of animals
Protocol: (§2) The new derivatives of this invention have also shown in vivo antimicrobial activity against experimental bacterial infections. When two doses of test compound were administered to mice in experimental infections, the activity observed was measured as an EDso value [effective dose in mg/kg to protect 50% of the test animals: see Warren Wick, et al., J. Bacteriol. 81, 233-235 (1961)].

Streptococcus pneumoniae = assay: Experimental bacterial infection in mice, ED50; type: in vivo; settings: Streptococcus pneumoniae, po, two doses, dose protecting 50% of animals, read-out: Oral ED50
Protocol: as §2

Streptococcus pyogenes = assay: Experimental bacterial infection in mice, ED50; type: in vivo; settings: Streptococcus pyogenes, po, two doses, dose protecting 50% of animals, read-out: Oral ED50
Protocol: as §2

[13] = tested on: Staphylococcus epidermidis EPI1; assay: MIC, standard agar-dilution assay; type: cell-based
Excerpt: as §1

[14] = Staphylococcus aureus V41, Penicillin-resistant strain, inducibly-resistant to erythromycin, read-out: MIC
[15] = Staphylococcus aureus X400, Methicillin-resistant strain, inducibly-resistant to erythromycin, read-out: MIC
[16] = Streptococcus sp. group D X66, read-out: MIC
[17] = sc, subcutaneous, read-out: Subcutaneous ED50

9-Deoxo-9-[(5-dimethylamino-2-pentyl)amino]-9,11-1N,O)-cyclic. Methylene Adduct of Erythromycin [Compound 63]
MIC [1]: 8 µg/mL
MIC ([2]; Staphylococcus aureus V41, Penicillin-resistant strain, inducibly-resistant to erythromycin): – (– = >128)
MIC ([3]; Staphylococcus aureus X400, Methicillin-resistant strain, inducibly-resistant to erythromycin): – (– = >128)
MIC [4]: 8 µg/mL
MIC [5]: 8 µg/mL
MIC [6]: 0.5 µg/mL
MIC [7]: 0.5 µg/mL
MIC ([8]; Streptococcus sp. group D X66): 2 µg/mL
MIC [9]: 32 µg/mL
MIC [10]: 8 µg/mL
MIC [11]: 8 µg/mL
MIC (Escherichia coli EC14): 32 µg/mL
MIC [12]: 128 µg/mL

CCC(CC)CN[C@@H]1[C@H](C)[C@@H](O)[C@](C)(O)[C@@H](CC)OC(=O)[C@H](C)[C@@H](O[C@H]2C[C@@](C)(OC)[C@@H](O)[C@H](C)O2)[C@H](C)[C@@H](O[C@@H]2O[C@H](C)C[C@H](N(C)C)[C@H]2O)[C@](C)(O)C[C@H]1C [Compound 12, 9-Deoxo-9-[(2-ethylbutyl)amino]erythromycin]
MIC ([1]; read-out: MIC): 0.5 µg/mL (≈ 0.61 µM)
MIC [2, 14]: 16 µg/mL (≈ 19.5 µM)
MIC [3, 15]: 16 µg/mL (≈ 19.5 µM)
MIC [4]: 0.25 µg/mL (≈ 0.305 µM)
MIC ([5]; read-out: MIC): 0.5 µg/mL (≈ 0.61 µM)
MIC ([6]; read-out: MIC): 0.015 µg/mL (≈ 0.0183 µM)
MIC ([7]; read-out: MIC): 0.015 µg/mL (≈ 0.0183 µM)
MIC [8, 16]: 0.125 µg/mL (≈ 0.153 µM)
MIC ([9]; read-out: MIC): 8 µg/mL (≈ 9.77 µM)
MIC ([10]; read-out: MIC): 2 µg/mL (≈ 2.44 µM)
MIC ([11]; read-out: MIC): 2 µg/mL (≈ 2.44 µM)
MIC (Escherichia coli EC14; read-out: MIC): 64 µg/mL (≈ 78.1 µM)
MIC ([12]; read-out: MIC): 32 µg/mL (≈ 39.1 µM)
ED50 (Staphylococcus aureus; po, read-out: Oral ED50): 22.3 mg/kg
ED50 (Streptococcus pneumoniae): 16.6 mg/kg
ED50 (Streptococcus pyogenes): 9.4 mg/kg

CC[C@H]1OC(=O)[C@H](C)[C@@H](O[C@H]2C[C@@](C)(OC)[C@@H](O)[C@H](C)O2)[C@H](C)[C@@H](O[C@@H]2O[C@H](C)C[C@H](N(C)C)[C@H]2O)[C@](C)(O)C[C@@H](C)[C@H]2[C@H](C)[C@@H](OCN2C(C)C)[C@]1(C)O [Compound 58, 9-Deoxo-9-[isopropylamino]-9,11-(N,O)-cyclic Methylene Adduct of Erythromycin]
MIC ([1]; read-out: MIC): 1 µg/mL (≈ 1.27 µM)
MIC ([2]; Staphylococcus aureus, V41): > 128 µg/mL
MIC ([3]; Staphylococcus aureus, X400): > 128 µg/mL
MIC [13]: 128 µg/mL (≈ 162 µM)
MIC [4]: 1 µg/mL (≈ 1.27 µM)
MIC ([5]; read-out: MIC): 0.5 µg/mL (≈ 0.634 µM)
MIC ([6]; read-out: MIC): 0.125 µg/mL (≈ 0.158 µM)
MIC ([7]; read-out: MIC): 0.06 µg/mL (≈ 0.076 µM)
MIC [8, 16]: 0.25 µg/mL (≈ 0.317 µM)
MIC ([9]; read-out: MIC): 4 µg/mL (≈ 5.07 µM)
MIC ([10]; read-out: MIC): 4 µg/mL (≈ 5.07 µM)
MIC ([11]; read-out: MIC): 4 µg/mL (≈ 5.07 µM)
MIC (Escherichia coli EC14; read-out: MIC): 32 µg/mL (≈ 40.6 µM)
MIC ([12]; read-out: MIC): 64 µg/mL (≈ 81.1 µM)
ED50 (Staphylococcus aureus; [17]): > 10 mg/kg
ED50 (Streptococcus pneumoniae): 5.7 mg/kg
ED50 (Streptococcus pyogenes): 6.7 mg/kg

CCCN1CO[C@@H]2[C@@H](C)[C@@H]1[C@H](C)C[C@@](C)(O)[C@H](O[C@@H]1O[C@H](C)C[C@H](N(C)C)[C@H]1O)[C@@H](C)[C@H](O[C@H]1C[C@@](C)(OC)[C@@H](O)[C@H](C)O1)[C@@H](C)C(=O)O[C@H](CC)[C@@]2(C)O [Compound 59]
MIC ([1]; read-out: MIC): 0.25 µg/mL (≈ 0.317 µM)
MIC [2, 14]: 8 µg/mL (≈ 10.1 µM)
MIC [3, 15]: 8 µg/mL (≈ 10.1 µM)
MIC [13]: > 128 µg/mL
MIC [4]: 0.125 µg/mL (≈ 0.158 µM)
MIC [5]: 0.125 µg/mL (≈ 0.158 µM)
MIC ([6]; read-out: MIC): < 0.008 µg/mL
MIC ([7]; read-out: MIC): < 0.008 µg/mL
MIC ([8]; Streptococcus): 0.125 µg/mL (≈ 0.158 µM)
MIC ([9]; read-out: MIC): 1 µg/mL (≈ 1.27 µM)
MIC ([10]; read-out: MIC): 1 µg/mL (≈ 1.27 µM)
MIC ([11]; read-out: MIC): 2 µg/mL (≈ 2.53 µM)
MIC (Escherichia coli EC14; read-out: MIC): 32 µg/mL (≈ 40.6 µM)
MIC ([12]; read-out: MIC): 128 µg/mL (≈ 162 µM)
ED50 (Staphylococcus aureus; po, read-out: Oral ED50): 7.2 mg/kg
ED50 (Streptococcus pneumoniae): 5 mg/kg
ED50 (Streptococcus pyogenes): 4.8 mg/kg

CC[C@H]1OC(=O)[C@H](C)[C@@H](O[C@H]2C[C@@](C)(OC)[C@@H](O)[C@H](C)O2)[C@H](C)[C@@H](O[C@@H]2O[C@H](C)C[C@H](N(C)C)[C@H]2O)[C@](C)(O)C[C@@H](C)[C@H]2[C@H](C)[C@@H](OCN2C2CCCC2)[C@]1(C)O [Compound 60]
MIC ([1]; read-out: MIC): 1 µg/mL (≈ 1.23 µM)
MIC [2, 14]: > 128 µg/mL
MIC [3, 15]: > 128 µg/mL
MIC [13]: > 128 µg/mL
MIC [4]: 2 µg/mL (≈ 2.45 µM)
MIC ([5]; read-out: MIC): 1 µg/mL (≈ 1.23 µM)
MIC ([6]; read-out: MIC): 0.125 µg/mL (≈ 0.153 µM)
MIC ([7]; read-out: MIC): 0.06 µg/mL (≈ 0.0736 µM)
MIC [8, 16]: 0.5 µg/mL (≈ 0.613 µM)
MIC ([9]; read-out: MIC): 8 µg/mL (≈ 9.81 µM)
MIC ([10]; read-out: MIC): 4 µg/mL (≈ 4.91 µM)
MIC ([11]; read-out: MIC): 4 µg/mL (≈ 4.91 µM)
MIC (Escherichia coli EC14; read-out: MIC): 64 µg/mL (≈ 78.5 µM)
MIC ([12]; read-out: MIC): 64 µg/mL (≈ 78.5 µM)
ED50 (Staphylococcus aureus; po, read-out: Oral ED50): > 50 mg/kg
ED50 (Staphylococcus aureus; [17]): 5 mg/kg
ED50 (Streptococcus pneumoniae): 9 mg/kg
ED50 (Streptococcus pyogenes): 10.2 mg/kg

CC[C@H]1OC(=O)[C@H](C)[C@@H](O[C@H]2C[C@@](C)(OC)[C@@H](O)[C@H](C)O2)[C@H](C)[C@@H](O[C@@H]2O[C@H](C)C[C@H](N(C)C)[C@H]2O)[C@](C)(O)C[C@@H](C)[C@H](N(C)C)[C@H](C)[C@@H](O)[C@]1(C)O [Compound 69, 9-Deoxo-9-(dimethylamino)erythromycin]
MIC ([1]; read-out: MIC): 4 µg/mL (≈ 5.24 µM)
MIC [2, 14]: 64 µg/mL (≈ 83.9 µM)
MIC [3, 15]: 64 µg/mL (≈ 83.9 µM)
MIC [13]: > 128 µg/mL
MIC [4]: 2 µg/mL (≈ 2.62 µM)
MIC ([5]; read-out: MIC): 2 µg/mL (≈ 2.62 µM)
MIC ([6]; read-out: MIC): 0.25 µg/mL (≈ 0.328 µM)
MIC [8, 16]: 0.5 µg/mL (≈ 0.655 µM)
MIC ([9]; read-out: MIC): 4 µg/mL (≈ 5.24 µM)
MIC ([10]; read-out: MIC): 2 µg/mL (≈ 2.62 µM)
MIC ([11]; read-out: MIC): 8 µg/mL (≈ 10.5 µM)
MIC (Escherichia coli EC14; read-out: MIC): 128 µg/mL (≈ 168 µM)
MIC ([12]; read-out: MIC): > 128 µg/mL
ED50 (Staphylococcus aureus; po, read-out: Oral ED50): > 43.8 mg/kg
ED50 (Streptococcus pneumoniae): 43.5 mg/kg
ED50 (Streptococcus pyogenes): 21.9 mg/kg

CC[C@H]1OC(=O)[C@H](C)[C@@H](O[C@H]2C[C@@](C)(OC)[C@@H](O)[C@H](C)O2)[C@H](C)[C@@H](O[C@@H]2O[C@H](C)C[C@H](N(C)C)[C@H]2O)[C@](C)(O)C[C@@H](C)[C@H](N(C)C(C)C)[C@H](C)[C@@H](O)[C@]1(C)O [Compound 70, 9-Deoxo-9-[(N-methyl-N-isopropyl)amino]erythromycin]
MIC ([1]; read-out: MIC): 8 µg/mL (≈ 10.1 µM)
MIC [2, 14]: > 128 µg/mL
MIC [3, 15]: > 128 µg/mL
MIC [13]: > 128 µg/mL
MIC [4]: 8 µg/mL (≈ 10.1 µM)
MIC ([5]; read-out: MIC): 8 µg/mL (≈ 10.1 µM)
MIC ([6]; read-out: MIC): 0.5 µg/mL (≈ 0.632 µM)
MIC ([7]; read-out: MIC): 0.5 µg/mL (≈ 0.632 µM)
MIC [8, 16]: 2 µg/mL (≈ 2.53 µM)
MIC ([9]; read-out: MIC): 32 µg/mL (≈ 40.5 µM)
MIC ([10]; read-out: MIC): 32 µg/mL (≈ 40.5 µM)
MIC ([11]; read-out: MIC): 32 µg/mL (≈ 40.5 µM)
MIC (Escherichia coli EC14; read-out: MIC): > 128 µg/mL
MIC ([12]; read-out: MIC): > 128 µg/mL
